{"source": "patent US10947574B2", "about": "“Method for producing fermented carotenoid using carotenoid-producing bacteria obtained by using cobalt-containing culturing medium” (ENEOS CORPORATION, priority 2015, dated 2021)", "assay_type_in_all_cases": "cell-based", "key": {"[1]": {"tested_on": "Paracoccus carotinifaciens strain E-396 (FERM BP-4283)", "assay": "Example 4: medium lots A-E with cobalt chloride, growth (OD610) and carotenoid levels (HPLC)", "details": "for Astaxanthin / OD610 / Total carotenoid: cobalt chloride added 0.1 mg/L (0.42 μmol/L)", "protocol": "(§1) In the following examples, carotenoids were quantified by high performance liquid chromatography (HPLC) as follows.\n(§2) Two columns of Inertsil SIL-100A, 5 μm (ϕ4.6 mm×250 mm) (GL Sciences Inc., Japan) were connected together for use as a column. For elution, a mixed solution of n-hexane, tetrahydrofuran and methanol (40:20:1) serving as a mobile phase was passed through the column at a flow rate of 1.0 mL per minute at a constant temperature around room temperature. For measurement, samples were each dissolved in tetrahydrofuran and diluted 100-fold with the mobile phase, and 20 μL aliquots of the resulting dilutions were injected into the column. The column eluates were detected at a wavelength of 470 nm. As a standard for quantification, astaxanthin (SIGMA, Cat. No. A9335) was used. The astaxanthin concentration of the standard solution was determined using the following equation after measuring the absorbance (A) of the standard solution at 477 nm and the area percentage % (B) of the astaxanthin peak in HPLC analysis under the above conditions.\nSubsequently, medium ingredients from different manufacturers and lots were combined to prepare 5 types of media, i.e., A, B, C, D and E indicated in Table 7, each having the following composition (glucose 30 g/L, filtered corn steep liquor 30 g/L, ammonium sulfate 1.5 g/L, potassium dihydrogen phosphate 1.5 g/L, disodium hydrogen phosphate dodecahydrate 3.8 g/L, calcium chloride dihydrate 5.0 g/L, magnesium sulfate heptahydrate 0.7 g/L, iron sulfate heptahydrate 1.0 g/L, silicon-based defoaming agent 0.2 g/L). These media were each dispensed in 7.2 ml volumes into cotton-plugged test tubes having an inner diameter of 18 mm to prepare 2 test tubes for each test tube medium for production, i.e., 10 test tubes in total.\nThe resulting culture solution was then inoculated in 0.05 ml volumes into the 5 types of test tube media for production having different cobalt concentrations (10 test tubes in total), and cultured under shaking at 28° C. for 4 days at 300 spm.\n(§3) After being cultured for 4 days, the culture solutions were each measured for microbial cell growth by OD610 and measure for carotenoid levels by HPLC."}, "[2]": {"tested_on": "Paracoccus sp. strain A-581-1 (FERM BP-4671)", "assay": "Example 6: cobalt concentration series, growth (OD610) and carotenoid levels (HPLC)", "protocol": "as §1, §2\nThe ingredients used to prepare the test tube medium for seed culture were obtained from lots where microbial cells had been confirmed to grow well.\nThe ingredients used to prepare the test tube medium for production were obtained from lots where microbial cells had been confirmed not to grow well.\nThe resulting culture solution was then inoculated in 0.05 ml volumes into the 7 types of test tube media for production having different cobalt concentrations, and cultured under shaking at 29° C. for 4 days at 300 spm.\nas §3"}, "[3]": {"tested_on": "Paracoccus zeaxanthinifaciens strain ATCC 21588", "assay": "Example 7: cobalt concentration series, growth (OD610) and carotenoid levels (HPLC)", "protocol": "as §1, §2\nSubsequently, a medium of the following composition (glucose 30 g/L, filtered corn steep liquor 30 g/L, ammonium sulfate 1.5 g/L, potassium dihydrogen phosphate 1.5 g/L, disodium hydrogen phosphate dodecahydrate 3.8 g/L, calcium chloride dihydrate 5.0 g/L, magnesium sulfate heptahydrate 0.7 g/L, iron sulfate heptahydrate 1.0 g/L, silicon-based defoaming agent 0.2 g/L) was dispensed in 7.2 ml volumes into cotton-plugged test tubes having an inner diameter of 18 mm to prepare 9 test tubes containing a test tube medium for production. The ingredients used to prepare the test tube medium for production were obtained from lots where microbial cells had been confirmed not to grow well.\nThe resulting culture solution was then inoculated in 0.05 ml volumes into the 9 types of test tube media for production having different cobalt concentrations, and cultured under shaking at 28° C. for 4 days at 300 spm.\nas §3"}, "[4]": {"details": "medium lot A, total cobalt 0.42 μmol/L"}, "[5]": {"details": "medium lot B, total cobalt 0.62 μmol/L"}, "[6]": {"details": "medium lot C, total cobalt 0.46 μmol/L"}, "[7]": {"details": "medium lot D, total cobalt 0.43 μmol/L"}, "[8]": {"details": "medium lot E, total cobalt 0.49 μmol/L"}, "[9]": {"details": "final concentration of 0.1 mg/L, regardless of manufacturer and lot of medium ingredient"}, "[10]": {"details": "cobalt added 0.00042 μmol/L, total 0.0024 μmol/L"}, "[11]": {"details": "cobalt added 0.0042 μmol/L, total 0.0062 μmol/L"}, "[12]": {"details": "cobalt added 0.042 μmol/L, total 0.044 μmol/L"}, "[13]": {"details": "cobalt added 0.42 μmol/L, total 0.42 μmol/L"}, "[14]": {"details": "cobalt added 4.2 μmol/L, total 4.2 μmol/L"}, "[15]": {"details": "cobalt added 42 μmol/L, total 42 μmol/L"}, "[16]": {"details": "cobalt added 0.021 μmol/L, total 0.023 μmol/L"}, "[17]": {"details": "cobalt added 21 μmol/L, total 21 μmol/L"}}, "data": [{"smiles": "O.O.O.O.O.O.[Cl-].[Cl-].[Co+2]", "note": "[Cobalt chloride hexahydrate]", "values": [{"measurement": "Astaxanthin", "setting": "[1]; Average of medium lots A-E", "result": 28, "unit": "mg/L"}, {"measurement": "OD610", "setting": "[1]; Average of medium lots A-E", "result": 37}, {"measurement": "Total carotenoid", "setting": "[1]; Average of medium lots A-E", "result": 41, "unit": "mg/L"}, {"measurement": "Astaxanthin", "setting": "[1]; [4]", "result": 29, "unit": "mg/L"}, {"measurement": "OD610", "setting": "[1]; [4]", "result": 37}, {"measurement": "Total carotenoid", "setting": "[1]; [4]", "result": 41, "unit": "mg/L"}, {"measurement": "Astaxanthin", "setting": "[1]; [5]", "result": 26, "unit": "mg/L"}, {"measurement": "OD610", "setting": "[1]; [5]", "result": 39}, {"measurement": "Total carotenoid", "setting": "[1]; [5]", "result": 40, "unit": "mg/L"}, {"measurement": "Astaxanthin", "setting": "[1]; [6]", "result": 29, "unit": "mg/L"}, {"measurement": "OD610", "setting": "[1]; [6]", "result": 38}, {"measurement": "Total carotenoid", "setting": "[1]; [6]", "result": 44, "unit": "mg/L"}, {"measurement": "Astaxanthin", "setting": "[1]; [7]", "result": 27, "unit": "mg/L"}, {"measurement": "OD610", "setting": "[1]; [7]", "result": 36}, {"measurement": "Total carotenoid", "setting": "[1]; [7]", "result": 41, "unit": "mg/L"}, {"measurement": "Astaxanthin", "setting": "[1]; [8]", "result": 28, "unit": "mg/L"}, {"measurement": "OD610", "setting": "[1]; [8]", "result": 37}, {"measurement": "Total carotenoid", "setting": "[1]; [8]", "result": 40, "unit": "mg/L"}, {"measurement": "bacterial growth, in words", "setting": "[1]; [9]", "result": "high"}, {"measurement": "carotenoid productivity, in words", "setting": "[1]; [9]", "result": "high"}, {"measurement": "Astaxanthin", "setting": "[2]; [10]", "result": 0.3, "unit": "mg/L"}, {"measurement": "OD610", "setting": "[2]; [10]", "result": 3}, {"measurement": "Total carotenoid", "setting": "[2]; [10]", "result": 0.9, "unit": "mg/L"}, {"measurement": "Astaxanthin", "setting": "[2]; [11]", "result": 0.5, "unit": "mg/L"}, {"measurement": "OD610", "setting": "[2]; [11]", "result": 5}, {"measurement": "Total carotenoid", "setting": "[2]; [11]", "result": 1.7, "unit": "mg/L"}, {"measurement": "Astaxanthin", "setting": "[2]; [12]", "result": 2.0, "unit": "mg/L"}, {"measurement": "OD610", "setting": "[2]; [12]", "result": 21}, {"measurement": "Total carotenoid", "setting": "[2]; [12]", "result": 5.3, "unit": "mg/L"}, {"measurement": "Astaxanthin", "setting": "[2]; [13]", "result": 2.1, "unit": "mg/L"}, {"measurement": "OD610", "setting": "[2]; [13]", "result": 22}, {"measurement": "Total carotenoid", "setting": "[2]; [13]", "result": 5.6, "unit": "mg/L"}, {"measurement": "Astaxanthin", "setting": "[2]; [14]", "result": 1.2, "unit": "mg/L"}, {"measurement": "OD610", "setting": "[2]; [14]", "result": 21}, {"measurement": "Total carotenoid", "setting": "[2]; [14]", "result": 5.5, "unit": "mg/L"}, {"measurement": "Astaxanthin", "setting": "[2]; [15]", "result": 0.0, "unit": "mg/L"}, {"measurement": "OD610", "setting": "[2]; [15]", "result": 2}, {"measurement": "Total carotenoid", "setting": "[2]; [15]", "result": 0.2, "unit": "mg/L"}, {"measurement": "Carotenoid: Zeaxanthin", "setting": "[3]; [10]", "result": 0.6, "unit": "mg/L"}, {"measurement": "Carotenoid: β-Carotene", "setting": "[3]; [10]", "result": 0.0, "unit": "mg/L"}, {"measurement": "Carotenoid: β-Cryptoxanthin", "setting": "[3]; [10]", "result": 0.0, "unit": "mg/L"}, {"measurement": "OD610", "setting": "[3]; [10]", "result": 2}, {"measurement": "Total carotenoid", "setting": "[3]; [10]", "result": 0.6, "unit": "mg/L"}, {"measurement": "Carotenoid: Zeaxanthin", "setting": "[3]; [11]", "result": 2.0, "unit": "mg/L"}, {"measurement": "Carotenoid: β-Carotene", "setting": "[3]; [11]", "result": 0.2, "unit": "mg/L"}, {"measurement": "Carotenoid: β-Cryptoxanthin", "setting": "[3]; [11]", "result": 0.1, "unit": "mg/L"}, {"measurement": "OD610", "setting": "[3]; [11]", "result": 6}, {"measurement": "Total carotenoid", "setting": "[3]; [11]", "result": 2.3, "unit": "mg/L"}, {"measurement": "Carotenoid: Zeaxanthin", "setting": "[3]; [16]", "result": 10.6, "unit": "mg/L"}, {"measurement": "Carotenoid: β-Carotene", "setting": "[3]; [16]", "result": 0.7, "unit": "mg/L"}, {"measurement": "Carotenoid: β-Cryptoxanthin", "setting": "[3]; [16]", "result": 0.3, "unit": "mg/L"}, {"measurement": "OD610", "setting": "[3]; [16]", "result": 25}, {"measurement": "Total carotenoid", "setting": "[3]; [16]", "result": 11.6, "unit": "mg/L"}, {"measurement": "Carotenoid: Zeaxanthin", "setting": "[3]; [12]", "result": 13.6, "unit": "mg/L"}, {"measurement": "Carotenoid: β-Carotene", "setting": "[3]; [12]", "result": 0.8, "unit": "mg/L"}, {"measurement": "Carotenoid: β-Cryptoxanthin", "setting": "[3]; [12]", "result": 0.3, "unit": "mg/L"}, {"measurement": "OD610", "setting": "[3]; [12]", "result": 29}, {"measurement": "Total carotenoid", "setting": "[3]; [12]", "result": 14.7, "unit": "mg/L"}, {"measurement": "Carotenoid: Zeaxanthin", "setting": "[3]; [13]", "result": 13.4, "unit": "mg/L"}, {"measurement": "Carotenoid: β-Carotene", "setting": "[3]; [13]", "result": 0.7, "unit": "mg/L"}, {"measurement": "Carotenoid: β-Cryptoxanthin", "setting": "[3]; [13]", "result": 0.3, "unit": "mg/L"}, {"measurement": "OD610", "setting": "[3]; [13]", "result": 29}, {"measurement": "Total carotenoid", "setting": "[3]; [13]", "result": 14.4, "unit": "mg/L"}, {"measurement": "Carotenoid: Zeaxanthin", "setting": "[3]; [14]", "result": 12.9, "unit": "mg/L"}, {"measurement": "Carotenoid: β-Carotene", "setting": "[3]; [14]", "result": 0.7, "unit": "mg/L"}, {"measurement": "Carotenoid: β-Cryptoxanthin", "setting": "[3]; [14]", "result": 0.3, "unit": "mg/L"}, {"measurement": "OD610", "setting": "[3]; [14]", "result": 28}, {"measurement": "Total carotenoid", "setting": "[3]; [14]", "result": 13.9, "unit": "mg/L"}, {"measurement": "Carotenoid: Zeaxanthin", "setting": "[3]; [17]", "result": 10.8, "unit": "mg/L"}, {"measurement": "Carotenoid: β-Carotene", "setting": "[3]; [17]", "result": 0.6, "unit": "mg/L"}, {"measurement": "Carotenoid: β-Cryptoxanthin", "setting": "[3]; [17]", "result": 0.4, "unit": "mg/L"}, {"measurement": "OD610", "setting": "[3]; [17]", "result": 24}, {"measurement": "Total carotenoid", "setting": "[3]; [17]", "result": 11.8, "unit": "mg/L"}, {"measurement": "Carotenoid: Zeaxanthin", "setting": "[3]; [15]", "result": 6.4, "unit": "mg/L"}, {"measurement": "Carotenoid: β-Carotene", "setting": "[3]; [15]", "result": 0.3, "unit": "mg/L"}, {"measurement": "Carotenoid: β-Cryptoxanthin", "setting": "[3]; [15]", "result": 0.3, "unit": "mg/L"}, {"measurement": "OD610", "setting": "[3]; [15]", "result": 18}, {"measurement": "Total carotenoid", "setting": "[3]; [15]", "result": 7.0, "unit": "mg/L"}]}]}
